For orientation: IC50 means the midpoint of a concentration-inhibition curve.

The values that follow come from US8513423B2 (Janssen Pharmaceutica, NV, priority 2010, dated 2013).

The target in experiment [1] is T1, purified wild type MGL (wt-MGLL 6H-11-313) (Homo sapiens, UniProt Q99685).
T1 construct: purified wild type MGL (wt-MGLL 6H-11-313)
T1 sequence (Q99685 1-303): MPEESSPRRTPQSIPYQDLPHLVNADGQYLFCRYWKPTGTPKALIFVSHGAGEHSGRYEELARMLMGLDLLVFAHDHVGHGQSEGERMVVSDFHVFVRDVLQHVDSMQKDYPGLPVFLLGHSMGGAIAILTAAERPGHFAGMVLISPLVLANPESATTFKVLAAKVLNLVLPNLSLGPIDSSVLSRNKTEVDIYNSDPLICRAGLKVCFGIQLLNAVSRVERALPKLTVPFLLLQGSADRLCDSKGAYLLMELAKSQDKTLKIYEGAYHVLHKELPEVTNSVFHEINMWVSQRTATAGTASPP
The experiment can be described thus: MGL enzyme activity assay (4MU-B cleavage), wild type MGL. The class given is biochemical. Conditions: 10 μM 4MU-B, 5 nM enzyme, 37° C., read-out: MGL wild type inh IC50. The gist of the method:
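Enzyme (5 nM final) cleaved 4MU-B (10 μM final) in 20 mM PIPES pH 7.0 with 150 mM NaCl and 0.001% Tween 20. Compounds were tested at 17 to 0.0003 μM final. Fluorescence (ex 335/em 440 nm) was monitored at 37° C for 5 min, and IC50 was fitted from fractional activity versus inhibitor concentration.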

For a further experiment, the target named is T2, MGL (Rattus norvegicus, UniProt Q8R431).
T2 construct: one g rat brain was homogenized; from tissue; host or cells: rat brain homogenate
T2 sequence (Q8R431 1-303): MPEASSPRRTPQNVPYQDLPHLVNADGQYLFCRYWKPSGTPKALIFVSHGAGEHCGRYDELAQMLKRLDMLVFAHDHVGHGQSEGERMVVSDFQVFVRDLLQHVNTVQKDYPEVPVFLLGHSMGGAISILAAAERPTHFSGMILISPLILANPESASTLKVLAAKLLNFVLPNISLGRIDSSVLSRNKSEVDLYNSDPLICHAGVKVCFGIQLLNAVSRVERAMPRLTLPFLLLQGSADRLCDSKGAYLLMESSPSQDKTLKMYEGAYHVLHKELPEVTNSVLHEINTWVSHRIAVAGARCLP
The experiment is described as follows: 2-AG accumulation assay in rat brain homogenate. The class given is biochemical. Conditions: compound @1 μM, read-out: Rat Brain 2AG % VehCntrl (%) @1 μM. On the procedure:
After a 15-min incubation time at 37° C., CaCl2 (final concentration=10 mM) was added and then incubated for 15 min at 37° C. in a total volume of 5 mL. The reactions were stopped with 6 mL organic solvent extraction solution of 2:1 chloroform/methanol. Accumulated 2-AG in the organic phase was measured by a HPLC/MS method, according to the following equation: percent vehicle=(2-AG accumulation in the presence of compound/2-AG accumulation in vehicle)×100.

The target in another experiment is T3, mutant MGL (Homo sapiens, UniProt Q99685, L169S/L176S).
T3 construct: purified mutant MGL (mut-MGLL 11-313 L179S L186S)
T3 sequence (Q99685 1-303 L169S/L176S): T1 sequence (Q99685 1-303) with L169S, L176S
The experiment can be described thus: MGL ThermoFluor assay - mutant. In kind it is binding. A digest of the protocol:
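Thermal shift binding with 0.07 mg/ml L169S/L176S MGL, 100 μM 1,8-ANS, 200 mM NaCl, 0.001% Tween-20, 50 mM PIPES pH 7.0. Heated 40–90 °C at 1 °C/min, fluorescence (em 500 nm) tracked to give Tm; Kd fitted from 11-point concentration–Tm response, qKd when stocks quantified by qNMR.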
Background: DSF heats the sample and reads unfolding from a dye or from intrinsic fluorescence.

[2] abbreviates: compound concentration measured by qNMR, read-out: MGL mutant ThermoFluor qKd (using qNMR conc.).
Where [3] appears, read: 0.07 mg/ml mutant MGL, pH=7.0, read-out: MGL mutant ThermoFluor Kd.

Where a chain is given by its changes, count along the chain named. Where two headings read alike, the source gives them in different places.

On to `O=C(c1ccc(-c2cccc(C(F)(F)F)c2)cc1)N1CCC(C2CN(C(=O)c3cscn3)C2)CC1` [Cpd 49, 4-[1-(1,3-Thiazol-4-ylcarbonyl)azetidin-3-yl]-1-{[3′-(trifluoromethyl)biphenyl-4-yl]carbonyl}piperidine], for which the IC50 in experiment [1] stood at 6 nM. Also, the 2-AG accumulation, percent of vehicle control at 1 µM at MGL is 908%. Besides, the Kd at mutant MGL (setting [2]) stood at 1 nM.

Turning to `O=C(c1ccc(Cc2cccc(C(F)(F)F)c2)cc1)N1CCC(C2CN(C(=O)c3ccc[nH]3)C2)CC1` [Cpd 59, 4-[1-(1H-Pyrrol-2-ylcarbonyl)azetidin-3-yl]-1-({4-[3-(trifluoromethyl)benzyl]phenyl}carbonyl)piperidine], the IC50 in experiment [1] stood at 11 nM. Also, the 2-AG accumulation, percent of vehicle control at 1 µM at MGL is 346%. The values for the Kd at mutant MGL (setting [3]) and at mutant MGL (setting [2]) were 20.2 nM and 9.4 nM, respectively.

In the case of `O=C(c1ccc2c(ccn2-c2ccc(F)cc2)c1)N1CCC(C2CN(C(=O)c3nccs3)C2)CC1` [Cpd 72, 1-(4-Fluorophenyl)-5-({4-[1-(1,3-thiazol-2-ylcarbonyl)azetidin-3-yl]piperidin-1-yl}carbonyl)-1H-indole], the IC50 in experiment [1] stood at 17 nM. Further, the 2-AG accumulation, percent of vehicle control at 1 µM on MGL came out at 657%. The Kd on mutant MGL (setting [2]) stood at 2.7 nM.

Consider `O=C(c1ccc2c(ccn2-c2ccc(C(F)(F)F)cc2)c1)N1CCC(C2CN(C(=O)c3cscn3)C2)CC1` [Cpd 76, 5-({4-[1(1,3-Thiazol-4-ylcarbonyl)azetidin-3-yl]piperidin-1-yl}carbonyl)-1-[4-(trifluoromethyl)phenyl]-1H-indole], for which, in experiment [1], the IC50 is 11.4 nM. Further, the 2-AG accumulation, percent of vehicle control at 1 µM at MGL came to 731%. Moreover, on mutant MGL (setting [2]), the Kd amounted to 8.3 nM.

`O=C(c1ccc2nc(-c3ccccc3)oc2c1)N1CCC(C2CN(C(=O)c3nccs3)C2)CC1` [Cpd 66, 2-Phenyl-6-({4-[1-(1,3-thiazol-2-ylcarbonyl)azetidin-3-yl]piperidin-1-yl}carbonyl)-1,3-benzoxazole]: the IC50 in experiment [1] worked out at 19.2 nM. Moreover, on MGL, the 2-AG accumulation, percent of vehicle control at 1 µM worked out at 889%. Further, the Kd at mutant MGL (setting [2]) came out at 6.7 nM.

In the case of `O=C(c1ccc(Cc2ccc(C(F)(F)F)cc2)cc1)N1CC(C2CCN(C(=O)c3cscn3)CC2)C1` [Cpd 33, 1-(1,3-Thiazol-4-ylcarbonyl)-4-[1-({4-[4-(trifluoromethyl)benzyl]phenyl}carbonyl)azetidin-3-yl]piperidine], the IC50 in experiment [1] is below 5 nM. Besides, the 2-AG accumulation, percent of vehicle control at 1 µM at MGL was 696%. Further, the Kd at mutant MGL (setting [3]) was determined as 62.6 nM.

On to `O=C(c1ccc2c(ccn2-c2ccc(F)c(F)c2)c1)N1CCC(C2CN(C(=O)c3ccc[nH]3)C2)CC1` [Cpd 80, 1-(3,4-Difluorophenyl)-5-({4-[1-(1H-pyrrol-2-ylcarbonyl)azetidin-3-yl]piperidin-1-yl}carbonyl)-1H-indole], for which the IC50 in experiment [1] was below 5 nM. For the same compound, on MGL, the 2-AG accumulation, percent of vehicle control at 1 µM is 860%. Also, the Kd on mutant MGL (setting [2]) stood at 4.9 nM.

As to `O=C(c1ccc2c(ccn2-c2ccc(F)cc2)c1)N1CCC(C2CN(C(=O)c3cscn3)C2)CC1` [Cpd 73, 1-(4-Fluorophenyl)-5-({4-[1-(1,3-thiazol-4-ylcarbonyl)azetidin-3-yl]piperidin-1-yl}carbonyl)-1H-indole], in experiment [1], the IC50 came to 12 nM. Also, the 2-AG accumulation, percent of vehicle control at 1 µM on MGL turned out to be 875%. Also, the Kd on mutant MGL (setting [2]) was 4.8 nM.

Regarding `O=C(c1ccc(-c2ccc(C(F)(F)F)s2)cc1)N1CCC(C2CN(C(=O)c3nccs3)C2)CC1` [Cpd 54, 4-[1-(1,3-Thiazol-2-ylcarbonyl)azetidin-3-yl]-1-({4-[5-(trifluoromethyl)thiophen-2-yl]phenyl}carbonyl)piperidine], the IC50 in experiment [1] is below 5 nM. Further, the 2-AG accumulation, percent of vehicle control at 1 µM at MGL is 736%. Moreover, at mutant MGL (setting [2]), the Kd amounted to 1.8 nM.

Consider `O=C(c1cccc(-c2cccc(F)c2)c1)N1CCC(C2CN(C(=O)c3nccs3)C2)CC1` [Cpd 51, 1-[(3′-Fluorobiphenyl-3-yl)carbonyl]-4-[1-(1,3-thiazol-2-ylcarbonyl)azetidin-3-yl]piperidine], for which the IC50 in experiment [1] is below 5 nM. The 2-AG accumulation, percent of vehicle control at 1 µM on MGL stood at 266%. Also, the Kd on mutant MGL (setting [2]) came out at 18 nM.

As for `O=C(c1ccc(Cc2ccc(C(F)(F)F)cc2)cc1)N1CC(C2CCN(C(=O)c3nccs3)CC2)C1` [Cpd 27, 1-(1,3-Thiazol-2-ylcarbonyl)-4-[1-({4-[4-(trifluoromethyl)benzyl]phenyl}carbonyl)azetidin-3-yl]piperidine], the IC50 in experiment [1] was found to be 9 nM. Further, on MGL, the 2-AG accumulation, percent of vehicle control at 1 µM is 634%. Moreover, the Kd on mutant MGL (setting [3]) is 13.3 nM.

As to `O=C(c1ccc(-c2cccc(C(F)(F)F)c2)cc1)N1CCC(C2CN(C(=O)c3ccc[nH]3)C2)CC1` [Cpd 50, 4-[1-(1H-Pyrrol-2-ylcarbonyl)azetidin-3-yl]-1-{[3′-(trifluoromethyl)biphenyl-4-yl]carbonyl}piperidine], the IC50 in experiment [1] is below 5 nM. In addition, the 2-AG accumulation, percent of vehicle control at 1 µM at MGL was determined as 561%. The Kd on mutant MGL (setting [2]) turned out to be 1 nM.

`Cc1c(C(=O)N2CC(C3CCN(C(=O)c4cscn4)CC3)C2)sc2cc(C(F)(F)F)ccc12` [Cpd 14, 4-(1-{[3-Methyl-6-(trifluoromethyl)-1-benzothiophen-2-yl]carbonyl}azetidin-3-yl)-1-(1,3-thiazol-4-ylcarbonyl)piperidine]: in experiment [1], the IC50 is 5 nM. For the same compound, the 2-AG accumulation, percent of vehicle control at 1 µM at MGL came out at 231%. For the same compound, on mutant MGL (setting [3]), the Kd came out at 5 nM.

On to `O=C(c1ccc(-c2cccc(C(F)(F)F)c2)cc1)N1CC(C2CCN(C(=O)c3ccc[nH]3)CC2)C1` [Cpd 22, 1-(1H-Pyrrol-2-ylcarbonyl)-4-(1-{[3′-(trifluoromethyl)biphenyl-4-yl]carbonyl}azetidin-3-yl)piperidine], for which the IC50 in experiment [1] stood at 8 nM. Also, at MGL, the 2-AG accumulation, percent of vehicle control at 1 µM was 470%. The Kd on mutant MGL (setting [3]) was 6.6 nM.

As for `O=C(c1ccc2c(ccn2-c2ccc(C(F)(F)F)cc2)c1)N1CC(C2CCN(C(=O)c3cscn3)CC2)C1` [Cpd 37, 5-({3-[1(1,3 -Thiazol-4-ylcarbonyl)piperidin-4-yl]azetidin-1-yl}carbonyl)-1-[4-(trifluoromethyl)phenyl]-1H-indole], the IC50 in experiment [1] was below 5 nM. For the same compound, the 2-AG accumulation, percent of vehicle control at 1 µM at MGL turned out to be 163%. For the same compound, on mutant MGL (setting [3]), the Kd amounted to 16 nM.

For `O=C(c1ccc(-c2cccc(C(F)(F)F)c2)cc1)N1CC(C2CCN(C(=O)c3nccs3)CC2)C1` [Cpd 16, 1-(1,3-Thiazol-2-ylcarbonyl)-4-(1-{[3′-(trifluoromethyl)biphenyl-4-yl]carbonyl}azetidin-3-yl)piperidine], in experiment [1], the IC50 worked out at 7 nM. Besides, the 2-AG accumulation, percent of vehicle control at 1 µM on MGL is 493%. Also, on mutant MGL (setting [3]), the Kd was found to be 2 nM.

Turning to `O=C(c1ccc(-c2ccc(C(F)(F)F)s2)cc1)N1CC(C2CCN(C(=O)c3ccc[nH]3)CC2)C1` [Cpd 24, 1-(1H-Pyrrol-2-ylcarbonyl)-4-[1-({4-[5-(trifluoromethyl)thiophen-2-yl]phenyl}carbonyl)azetidin-3-yl]piperidine], the IC50 in experiment [1] was 37.9 nM. For the same compound, the 2-AG accumulation, percent of vehicle control at 1 µM at MGL was determined as 298%. The Kd on mutant MGL (setting [3]) came out at 19.9 nM.

Regarding `O=C(c1nccs1)N1CCC(C2CN(C(=O)c3ccc(-c4ccccc4)cc3F)C2)CC1` [Cpd 15, 4-{1-[(3-Fluorobiphenyl-4-yl)carbonyl]azetidin-3-yl}-1-(1,3-thiazol-2-ylcarbonyl)piperidine], the IC50 in experiment [1] turned out to be 7 nM. The 2-AG accumulation, percent of vehicle control at 1 µM at MGL turned out to be 281%. Moreover, at mutant MGL (setting [3]), the Kd came out at 9 nM.
